# Source: patent publication US10499640B2, “Herbicidal compounds” (SYNGENTA PARTICIPATIONS AG, priority 2014, dated 2019)
# Assays:
# Format in all cases: in vivo
# Setaria faberi (SETFA) [1] = experiment: Pre-emergence herbicidal activity, glasshouse pot test; design: key: 5=total damage to plant; 0=no damage to plant; conditions: Rate 1000 g/Ha; sprayed one day after sowing; evaluated after 13 days; scale 0-5
# In short: (§1)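 Pre-emergence spray, one day post-sowing; vehicle acetone/water (50:50) + 0.5% Tween 20, aqueous dilution. Glasshouse 24/16 °C, 14 h light, 65% RH, watering twice daily. Score at 13 d on 0–5 scale, 5 = total damage.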
# [2] = system: Amaranthus retroflexus (AMARE); experiment: as above; design: key: 5=total damage to plant; 0=no damage to plant; conditions: Rate 1000 g/Ha; sprayed one day after sowing; evaluated after 13 days; scale 0-5
# In short: as §1
# [3] = system: Abutilon theophrasti (ABUTH); experiment: as above; design: key: 5=total damage to plant; 0=no damage to plant; conditions: Rate 1000 g/Ha; sprayed one day after sowing; evaluated after 13 days; scale 0-5
# In short: as §1
# [4] = system: Echinochloa crus-galli (ECHCG); experiment: as above; design: key: 5=total damage to plant; 0=no damage to plant; conditions: Rate 1000 g/Ha; sprayed one day after sowing; evaluated after 13 days; scale 0-5
# In short: as §1
# [5] = system: Alopecurus myosuroides (ALOMY); experiment: as above; design: key: 5=total damage to plant; 0=no damage to plant; conditions: Rate 1000 g/Ha; sprayed one day after sowing; evaluated after 13 days; scale 0-5
# In short: as §1
# Zea mays (ZEAMX) [6] = experiment: as above; conditions: Rate 1000 g/Ha; sprayed one day after sowing; evaluated after 13 days; scale 0-5
# In short: as §1
# Setaria faberi (SETFA) [7] = experiment: Post-emergence herbicidal activity, glasshouse pot test; design: key: 5=total damage to plant; 0=no damage to plant; conditions: Rate 1000 g/Ha; sprayed after 8 days cultivation; evaluated after 13 days; scale 0-5
# In short: (§2)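 Damage rating 0 (none) to 5 (total), assessed 13 days after spraying. Plants received the compound in acetone/water 50:50 with 0.5% Tween 20 at 8 days post-sowing, then were kept at 24/16 °C, 14 h photoperiod, 65% RH.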
# [8] = system: Amaranthus retroflexus (AMARE); experiment: as above; design: key: 5=total damage to plant; 0=no damage to plant; conditions: Rate 1000 g/Ha; sprayed after 8 days cultivation; evaluated after 13 days; scale 0-5
# In short: as §2
# [9] = system: Abutilon theophrasti (ABUTH); experiment: as above; design: key: 5=total damage to plant; 0=no damage to plant; conditions: Rate 1000 g/Ha; sprayed after 8 days cultivation; evaluated after 13 days; scale 0-5
# In short: as §2
# Zea mays (ZEAMX) [10] = experiment: as above; design: key: 5=total damage to plant; 0=no damage to plant; conditions: Rate 1000 g/Ha; sprayed after 8 days cultivation; evaluated after 13 days; scale 0-5
# In short: as §2
# [11] = system: Echinochloa crus-galli (ECHCG); experiment: as above; design: key: 5=total damage to plant; 0=no damage to plant; conditions: Rate 1000 g/Ha; sprayed after 8 days cultivation; evaluated after 13 days; scale 0-5
# In short: as §2
# [12] = system: Alopecurus myosuroides (ALOMY); experiment: as above; design: key: 5=total damage to plant; 0=no damage to plant; conditions: Rate 1000 g/Ha; sprayed after 8 days cultivation; evaluated after 13 days; scale 0-5
# In short: as §2
Compound,"SETFA damage score, application pre-emergence (Setaria faberi (SETFA) [1])","AMARE damage score, application pre-emergence [2]","ABUTH damage score, application pre-emergence [3]","ECHCG damage score, application pre-emergence [4]","ALOMY damage score, application pre-emergence [5]","ZEAMX damage score, application pre-emergence (Zea mays (ZEAMX) [6])","SETFA damage score, application post-emergence (Setaria faberi (SETFA) [7])","AMARE damage score, application post-emergence [8]","ABUTH damage score, application post-emergence [9]","ZEAMX damage score, application post-emergence (Zea mays (ZEAMX) [10])","ECHCG damage score, application post-emergence [11]","ALOMY damage score, application post-emergence [12]"
CC(C)(C#N)c1cc(N2C(=O)NCC2O)no1 (stereo not drawn) [Compound A8],1,5,5,1,0,1,3,4,5,1,3,2
CC(C)(C)c1cc(N2C(=O)N3CCCCC3C2O)no1 (stereo not drawn) [Compound A26],4,5,5,4,4,3,5,5,5,5,5,5
